Laboratory results taken from ChEMBL document CHEMBL3885861, “Open TG-GATES”.

Species: Rattus norvegicus
Experiment: Open TG-GATES - Regimen: Single
Type: toxicity, organism-based, Sprague-Dawley
Set-up: regimen Single, gender Male, age 6 weeks
Conditions: in vivo, po, 0 mg/kg, route gavage, dose level Control; for APTT / Bas / Eos / Fbg / Hb / Ht / Lym / MCH / MCHC / MCV / Mono / Neu / PT / Plat / RBC / Ret / WBC: tissue Blood; for KIDNEY_L / KIDNEY_R / KIDNEY_TOTAL: tissue Kidney; for LIVER: tissue Liver; for A/G / ALP / ALT / AST / BUN / CRE / Ca / Cl / DBIL / GLC / IP / K / LDH / Na / PL / RALB / TBIL / TC / TG / TP / gamma-GTP: tissue Plasma

## CN(C)CCN(Cc1cccs1)c1ccccn1
3 h
  TERMINAL_BW: 183.4 g
  APTT: 20.4 s
  Bas: 0%
  Eos: 0.4%
  Fbg: 308 mg/dL
  Hb: 13.1 g/dL
  Ht: 40.4%
  Lym: 76.8%
  MCH: 20.9 pg
  MCHC: 32.5%
  MCV: 64.2 fL
  Mono: 2.4%
  Neu: 20%
  PT: 16.5 s
  Plat: 124.4 x10_4/uL
  RBC: 629.4 x10_4/ul
  Ret: 7.8%
  WBC: 76.5 x10_2/uL
  KIDNEY_L: 0.8 g
  KIDNEY_R: 0.9 g
  KIDNEY_TOTAL: 1.7 g
  LIVER: 8.4 g
  A/G: 1.2
  ALP: 1580.4 IU/L
  ALT: 41.4 IU/L
  AST: 72.8 IU/L
  BUN: 14.4 mg/dL
  CRE: 0.2 mg/dL
  Ca: 10.3 mg/dL
  Cl: 107.4 meq/L
  DBIL: 0 mg/dL
  GLC: 181.8 mg/dL
  IP: 7.7 mg/dL
  K: 4.2 meq/L
  LDH: 227 IU/L
  Na: 142.8 meq/L
  PL: 127.6 mg/dL
  RALB: 2.9 g/dL
  TBIL: 0.008 mg/dL
  TC: 70.4 mg/dL
  TG: 42.6 mg/dL
  TP: 5.3 g/dL
  gamma-GTP: 1 IU/L
6 h
  TERMINAL_BW: 186.2 g
  APTT: 20.7 s
  Bas: 0%
  Eos: 0.4%
  Fbg: 303 mg/dL
  Hb: 12.6 g/dL
  Ht: 38.6%
  Lym: 84.6%
  MCH: 21 pg
  MCHC: 32.7%
  MCV: 64.1 fL
  Mono: 1.6%
  Neu: 12.4%
  PT: 17.2 s
  Plat: 119.7 x10_4/uL
  RBC: 603 x10_4/ul
  Ret: 7.8%
  WBC: 97.9 x10_2/uL
  KIDNEY_L: 0.9 g
  KIDNEY_R: 0.9 g
  KIDNEY_TOTAL: 1.7 g
  LIVER: 8.3 g
  A/G: 1.2
  ALP: 1742 IU/L
  ALT: 37.4 IU/L
  AST: 68.4 IU/L
  BUN: 10.8 mg/dL
  CRE: 0.2 mg/dL
  Ca: 10 mg/dL
  Cl: 106.2 meq/L
  DBIL: 0 mg/dL
  GLC: 174.2 mg/dL
  IP: 9 mg/dL
  K: 4.1 meq/L
  LDH: 171.6 IU/L
  Na: 141.8 meq/L
  PL: 127.2 mg/dL
  RALB: 2.9 g/dL
  TBIL: 0.016 mg/dL
  TC: 74.8 mg/dL
  TG: 44.6 mg/dL
  TP: 5.3 g/dL
  gamma-GTP: 1 IU/L
